Patent publication US12678446B2 (PFIZER INC., priority 2020, dated 2026)

Experiments:
[1] = cell toxicity CC50; assay type: cell-based; settings: human; Hep-G2 cells; mean of at least two experiments; read-out: Cell Cytotoxicity CC50
[2] = system: RSV (RSV A2 ECACC, 0709161v); test: RSV plaque reduction assay; assay type: cell-based, respiratory syncytial virus; settings: human respiratory syncytial virus, HepG2, read-out: RSV A2 Plaque EC50, RSV A2 in Hep-G2 cells; mean of at least two experiments unless noted (n = 1)
Description: Compounds w ere subjected to RSV plaque reduction assays according to the following protocol.
Hep-G2 cells (ECACC, 85011430) were passaged in flasks and seeded in 24-well plates in DMEM containing antibiotics and supplemented with 10% FBS. During inoculation and subsequent incubation, cells were cultured in DMEM containing 2% FBS. 100 plaque forming unit/well of RSV (RSV A2 ECACC, 0709161v) was mixed with eight serial dilutions of compound. Subsequently, 100 μL of the virus/compound mixtures was added to confluent Hep-G2 cell monolayers. The cells and virus/compound mixtures were incubated at 37° C. in a humidified 5% CO2 incubator for 2 h prior to removal of the inoculum and addition of 1 mL of overlay (DMEM containing 2% FBS and 0.8% CMC) containing compound dilutions. The cells and were incubated at 37° C. in a humidified 5% CO2 incubator for 2 days.
Cells were washed with PBS before adding 75/25% v/v EtOH MeOH, for 3 min. Fixative was removed and plates were washed with PBS. A pre-titrated amount of the primary antibody was added in 200 μL PBS/2% milk powder, and plates incubated for 90 min at 37° C. The plates were washed 3 times with PBS/0.05% Tween20 before addition of rabbit anti-goat horse radish peroxidase in 200 μL PBS/2% milk powder, and incubated for 1 h at 37° C. Following three wash steps with PBS/0.05% Tween20, 200 μL ready-to-use TrueBlue was added and plates were incubated at rt for 10-15 min before washing with water. After removal of water, plates were air-dried in the dark.
Plates were scanned and analysed using the Immunospot S6 Macro analyser, which is equipped with BioSpot analysis software for counting immunostained plaques (virospots). Plaque counts were used to calculate % infection relative to the mean of the plaque count in the virus control wells for RSV. […] Unless otherwise noted, plaque EC50 and cell toxicity CC50 values are a mean of at least two experiments and figures are rounded to whole units.

Cc1cnc(F)c(-c2nn3c(c2C(=O)N[C@H]2N=C(c4ccccc4)c4ccccc4NC2=O)OCCC3)c1 [Example 42, 2-(2-Fluoro-5-methylpyridin-3-yl)-N-[(3S)-2-oxo-5-phenyl-1,3-dihydro-1,4-benzodiazepin-3-yl]-6,7-dihydro-5H-pyrazolo[5,1-b][1,3]oxazine-3-carboxamide]
CC50 [1]: > 25000 nM
EC50 [2]: 124 nM

CCN(Cc1ccccc1)CC1COc2c(C(=O)N[C@H]3N=C(c4ccccc4)c4cccc(F)c4NC3=O)c(-c3ccccc3F)nn2C1 (stereo partly drawn) [Example 174, 6-[[Benzyl(ethyl)amino]methyl]-N-[(3S)-9-fluoro-2-oxo-5-phenyl-1,3-dihydro-1,4-benzodiazepin-3-yl]-2-(2-fluorophenyl)-6,7-dihydro-5H-pyrazolo[5,1-b][1,3]oxazine-3-carboxamide]
CC50 [1]: > 25000 nM
EC50 [2]: 406 nM

CC(C)Nc1ccc(-c2nn3c(c2C(=O)N[C@H]2N=C(c4ccccc4)c4cccc(F)c4NC2=O)OCCC3)c(F)n1 [Example 4, N-[(3S)-9-Fluoro-2-oxo-5-phenyl-1,3-dihydro-1,4-benzodiazepin-3-yl]-2-[2-fluoro-6-(propan-2-ylamino)pyridin-3-yl]-6,7-dihydro-5H-pyrazolo[5,1-b][1,3]oxazine-3-carboxamide]
CC50 [1]: > 25000 nM
EC50 [2]: 29 nM

C[C@@H]1CCn2nc(-c3ccoc3)c(C(=O)N[C@H]3N=C(c4ccccc4)c4ccccc4NC3=O)c2O1 [Example 62, (5R)-2-(3-Furyl)-5-methyl-N-[(3S)-2-oxo-5-phenyl-1,3-dihydro-1,4-benzodiazepin-3-yl]-6,7-dihydro-5H-pyrazolo[5,1-b][1,3]oxazine-3-carboxamide]
CC50 [1]: > 25000 nM
EC50 [2]: 192 nM

CS(=O)(=O)CC1COc2c(C(=O)N[C@H]3N=C(c4ccccc4)c4cccc(F)c4NC3=O)c(-c3ccccc3F)nn2C1 (stereo partly drawn) [Example 184, N-[(3S)-9-fluoro-2-oxo-5-phenyl-1,3-dihydro-1,4-benzodiazepin-3-yl]-2-(2-fluorophenyl)-6-(methylsulfonylmethyl)-6,7-dihydro-5H-pyrazolo[5,1-b][1,3]oxazine-3-carboxamide]
CC50 [1]: > 25000 nM
EC50 [2]: 300 nM

C[C@@H]1CCn2nc(Nc3ccc(F)cc3)c(C(=O)N[C@H]3N=C(c4ccccc4)c4cccc(F)c4NC3=O)c2O1 [Example 97, (5R)-2-(4-Fluoroanilino)-N-[(3S)-9-fluoro-2-oxo-5-phenyl-1,3-dihydro-1,4-benzodiazepin-3-yl]-5-methyl-6,7-dihydro-5H-pyrazolo[5,1-b][1,3]oxazine-3-carboxamide]
CC50 [1]: > 25000 nM
EC50 [2]: 439 nM

C[C@@H]1CCn2nc(C3CCN(S(C)(=O)=O)CC3)c(C(=O)N[C@H]3N=C(c4ccccc4)c4ccccc4NC3=O)c2O1 [Example 162, (5R)-5-Methyl-2-(1-methylsulfonylpiperi-din-4-yl)-N-[(3S)-2-oxo-5-phenyl-1,3-dihydro-1,4-benzodiazepin-3-yl]-6,7-dihydro-5H-pyrazolo[5,1-b][1,3]oxazine-3-carboxamide]
CC50 [1]: > 25000 nM
EC50 [2]: 166 nM

C[C@@H]1CCn2nc(-c3ccccc3)c(C(=O)N[C@H]3N=C(c4ccccc4)c4cccc(F)c4NC3=O)c2O1 [Example 81, (5R)-5-Methyl-2-phenyl-N-[(3S)-9-fluoro-2-oxo-5-phenyl-1,3-dihydro-1,4-benzodiazepin-3-yl]-6,7-dihydro-5H-pyrazolo[5,1-b][1,3]oxazine-3-carboxamide]
CC50 [1]: > 25000 nM
EC50 [2]: 84 nM

Cc1cnc(F)c(-c2nn3c(c2C(=O)N[C@H]2N=C(c4ccccc4)c4cccc(F)c4NC2=O)OCCC3)c1 [Example 43, 2-(2-Fluoro-5-methylpyridin-3-yl)-N-[(3S)-9-fluoro-2-oxo-5-phenyl-1,3-dihydro-1,4-benzodiazepin-3-yl]-6,7-dihydro-5H-pyrazolo[5,1-b][1,3]oxazine-3-carboxamide]
CC50 [1]: > 25000 nM
EC50 [2]: 101 nM

N#Cc1ccc(-c2nn3c(c2C(=O)N[C@H]2N=C(c4ccccc4)c4cccc(F)c4NC2=O)OCCC3)c(F)c1 [Example 138, 2-(4-Cyano-2-fluorophenyl)-N-[(3S)-9-fluoro-2-oxo-5-phenyl-1,3-dihydro-1,4-benzodiazepin-3-yl]-6,7-dihydro-5H-pyrazolo[5,1-b][1,3]oxazine-3-carboxamide]
CC50 [1]: > 25000 nM
EC50 [2]: 54 nM

O=C(N[C@H]1N=C(c2ccccc2)c2cccc(F)c2NC1=O)c1c(-c2ccccc2)nn2c1OCCC2 [Example 23, N-[(3S)-9-fluoro-2-oxo-5-phenyl-1,3-dihydro-1,4-benzodiazepin-3-yl]-2-phenyl-6,7-dihydro-5H-pyrazolo[5,1-b][1,3]oxazine-3-carboxamide]
CC50 [1]: > 25000 nM
EC50 [2]: 60 nM

CCC1COc2c(C(=O)N[C@H]3N=C(c4ccccc4)c4cccc(F)c4NC3=O)c(-c3ccccc3F)nn2C1 (stereo partly drawn) [Example 11, 6-Ethyl-N-[(3S)-9-fluoro-2-oxo-5-phenyl-2,3-dihydro-1H-1,4-benzodiazepin-3-yl]-2-(2-fluorophenyl)-5H,6H,7H-pyrazolo[3,2-b][1,3]oxazine-3-carboxamide]
CC50 [1]: > 25000 nM
EC50 [2]: 33 nM

O=C(N[C@H]1N=C(c2ccccc2)c2cccc(F)c2NC1=O)c1c(Br)nn2c1OCCC2 [Example 195, 2-Bromo-N-[(3S)-9-fluoro-2-oxo-5-phenyl-1,3-dihydro-1,4-benzodiazepin-3-yl]-6,7-dihydro-5H-pyrazolo[5,1-b][1,3]oxazine-3-carboxamide]
CC50 [1]: > 25000 nM
EC50 [2]: 355 nM

CN(C)Cc1ccc(-c2nn3c(c2C(=O)N[C@H]2N=C(c4ccccc4)c4cccc(F)c4NC2=O)OCCC3)c(F)c1 [Example 100]
CC50 [1]: > 25000 nM
EC50 [2]: 75 nM

Cc1c(-c2nn3c(c2C(=O)N[C@H]2N=C(c4ccccc4)c4cccc(F)c4NC2=O)O[C@H](C)CC3)cnn1C [Example 121, (5R)-2-(1,5-Dimethylpyrazol-4-yl)-N-[(3S)-9-fluoro-2-oxo-5-phenyl-1,3-dihydro-1,4-benzodiazepin-3-yl]-5-methyl-6,7-dihydro-5H-pyrazolo[5,1-b][1,3]oxazine-3-carboxamide]
CC50 [1]: > 25000 nM
EC50 [2]: 374 nM

CCn1ccc(-c2nn3c(c2C(=O)N[C@H]2N=C(c4ccccc4)c4cccc(F)c4NC2=O)O[C@H](C)CC3)n1 [Example 68, (5R)-2-(1-Ethylpyrazol-3-yl)-N-[(3S)-9-fluoro-2-oxo-5-phenyl-1,3-dihydro-1,4-benzodiazepin-3-yl]-5-methyl-6,7-dihydro-5H-pyrazolo[5,1-b][1,3]oxazine-3-carboxamide]
CC50 [1]: > 25000 nM
EC50 [2]: 307 nM

O=C(N[C@H]1N=C(c2ccccc2)c2cccc(F)c2NC1=O)c1c(C2CC2)nn2c1OCCC2 [Example 45, 2-Cyclopropyl-N-[(3S)-9-fluoro-2-oxo-5-phenyl-1,3-dihydro-1,4-benzodiazepin-3-yl]-6,7-dihydro-5H-pyrazolo[5,1-b][1,3]oxazine-3-carboxamide]
CC50 [1]: > 25000 nM
EC50 [2]: 301 nM

CCNCC1COc2c(C(=O)N[C@H]3N=C(c4ccccc4)c4cccc(F)c4NC3=O)c(-c3ccccc3F)nn2C1 (stereo partly drawn) [Example 192, 6-(Ethylaminomethyl)-N-[(3S)-9-fluoro-2-oxo-5-phenyl-1,3-dihydro-1,4-benzodiazepin-3-yl]-2-(2-fluorophenyl)-6,7-dihydro-5H-pyrazolo[5,1-b][1,3]oxazine-3-carboxamide]
CC50 [1]: > 24400 nM
EC50 [2]: 243 nM

CN(CC1COc2c(C(=O)N[C@H]3N=C(c4ccccc4)c4cccc(F)c4NC3=O)c(-c3ccccc3F)nn2C1)C1COC1 (stereo partly drawn) [Example 169, N-[(3S)-9-fluoro-2-oxo-5-phenyl-1,3-dihydro-1,4-benzodiazepin-3-yl]-2-(2-fluorophenyl)-6-[[methyl(oxetan-3-yl)amino]methyl]-6,7-dihydro-5H-pyrazolo[5,1-b][1,3]oxazine-3-carboxamide]
CC50 [1]: > 25000 nM
EC50 [2]: 114 nM

[2H]C([2H])([2H])Nc1ccc(-c2nn3c(c2C(=O)N[C@H]2N=C(c4ccccc4)c4cccc(F)c4NC2=O)O[C@H](C)CC3)cn1 [Example 71, (5R)-5-Methyl-N-[(3S)-9-fluoro-2-oxo-5-phenyl-1,3-dihydro-1,4-benzodiazepin-3-yl]-2-[6-(trideuteriomethylamino)pyridin-3-yl]-6,7-dihydro-5H-pyrazolo[5,1-b][1,3]oxazine-3-carboxamide]
CC50 [1]: > 25000 nM
EC50 [2]: 91 nM

CC1CCn2nc(-c3ccc(N4C[C@@H]5C[C@H]4CO5)nc3)c(C(=O)NC3N=C(c4ccccc4)c4cccc(F)c4NC3=O)c2O1 (stereo in doubt) [Example 87, (5S)-5-Methyl-N-[(3R)-9-fluoro-2-oxo-5-phenyl-1,3-dihydro-1,4-benzodiazepin-3-yl]-2-[6-[(1S,4S)-2-oxa-5-azabicyclo[2.2.1]heptan-5-yl]pyridin-3-yl]-6,7-dihydro-5H-pyrazolo[5,1-b][1,3]oxazine-3-carboxamide]
CC50 [1]: > 25000 nM
EC50 [2]: 179 nM
